In the OPERA property sets (Mansouri et al. 2018) one finds solubility data, which are given here for 70 molecules.

≈ marks a conversion by molar mass, not a printed value.

The conditions of one data set: 20 °C.
As for `O=c1cc[nH]cn1`, the solubility was determined as 3850 mM (≈ 370000 µg/mL).
Same read-out and setting: in the case of `C=CCCCN=C=S` it was 1.26 mM (≈ 160 µg/mL); in that of `OCC(O)C1OC(Oc2ccccc2)C(O)C(O)C1O` (stereo not given), 27.9 mM (≈ 8000 µg/mL); in that of `N#Cc1ccc(C(=O)O)cc1`, 8.16 mM (≈ 1200 µg/mL).
Still for that read-out and setting: in the case of `N[C@@H](C(=O)O)[C@@H](O)[C@H](O)[C@H](O)CO` it was 138 mM (≈ 27000 µg/mL).
As for `CCOC(=O)c1ccccc1C(=O)c1ccccc1`, the solubility came out at 0.393 mM (≈ 100 µg/mL).
`O=[N+]([O-])c1ccccc1CO` came in with a solubility of 32.7 mM (≈ 5000 µg/mL).
Same read-out and setting: as for `CC(=O)Nc1ccc(F)cc1C`, the figure is 43.7 mM (≈ 7310 µg/mL).

The same data set, now with this note: 21 °C.
With `O=C(O)c1cc(Br)ccc1Cl`, the solubility stood at 11.2 mM (≈ 2630 µg/mL).
Same read-out and setting: in the case of `CNC(CC(=O)O)C(=O)O` (stereo in doubt) it was 176 mM (≈ 25900 µg/mL).

The data set is the same for the next values; noted with them: 22 °C.
The molecule `O=C1CCCCCCCCCN1` yielded a solubility of 13 mM (≈ 2200 µg/mL).
On to `CC(=O)OCCS`, for which the solubility stood at 31.6 mM (≈ 3800 µg/mL).
Molecule `O=[N+]([O-])c1cccc(P(=O)(O)O)c1` registered a solubility of 4830 mM (≈ 980000 µg/mL).

The data set is the same for the next values; noted with them: 23 °C.
Turning to `CC(=O)C1(C)CO1` (stereo not given), the solubility was found to be 2400 mM (≈ 240000 µg/mL).
In the case of `CCCc1nc(N)c(CC)c(CCC)n1`, the solubility stood at 3.07 mM (≈ 636 µg/mL).

Still in this data set, the particulars now being: 24 °C.
In turn, `c1ccc(CCNCc2ccccc2)cc1` showed a solubility of 1.89 mM (≈ 400 µg/mL).
Still for that read-out and setting: in the case of `O=NC1=C(NO)CCC1` it was 10.1 mM (≈ 1300 µg/mL).

The same data set, now with this note: 25 °C.
Take `O=C(O)COCC(=O)O`: the solubility was 3110 mM (≈ 417000 µg/mL).
Consider `N#CSc1ccc(N)cc1`, for which the solubility turned out to be 2.5 mM (≈ 376 µg/mL). This solubility lies about 1200-fold lower than the previous one.
On the same count and under the same terms, in the case of `CCCCCCCCOCC(O)CO` (stereo not given) it was 12 mM (≈ 2450 µg/mL).
As to `C[C@@H](N)C(C)(C)C`, the solubility came out at 9690 mM (≈ 980000 µg/mL). Against the preceding molecule, the solubility is about 810-fold higher.
Still for that read-out and setting: as for `CCC1(c2ccccc2)NC(=O)NC1=O` (stereo not given), the figure is 6.76 mM (≈ 1380 µg/mL); as for `CC(=O)CC(=O)c1ccccc1`, 2.36 mM (≈ 383 µg/mL); as for `CCCC(=O)N(C)N=O`, 29.2 mM (≈ 3800 µg/mL).
On the same count and under the same terms, in the case of `CCOCCC(=O)OC` it was 847 mM (≈ 112000 µg/mL); in that of `CC1(C)OC(=O)c2ccccc21`, 13.5 mM (≈ 2200 µg/mL).
On the same count and under the same terms, in the case of `CC(C)C1OCC2(CO1)COC(C(C)C)OC2` (stereo not given) it was 0.769 mM (≈ 188 µg/mL); in that of `Nc1cc([N+](=O)[O-])ccc1Br`, 0.277 mM (≈ 60 µg/mL); in that of `CCCCCCCCCNC(=O)c1cccnc1`, 0.725 mM (≈ 180 µg/mL).
`CCCCOCCC(=O)OC` returned a solubility of 51.2 mM (≈ 8200 µg/mL).
On the same count and under the same terms, in the case of `CCC1(CC)OC(=O)c2ccccc21` it was 1.37 mM (≈ 260 µg/mL); in that of `Oc1c(Cl)cc(Cl)cc1Cc1ccccc1`, 0.0229 mM (≈ 5.8 µg/mL); in that of `CCc1cc(C)cc(O)c1`, 17 mM (≈ 2320 µg/mL).
Same read-out and setting: in the case of `O=C(O)[C@@H]1CC[C@H](C(=O)O)SS1` it was 44.9 mM (≈ 9360 µg/mL); in that of `Cc1ccc(/N=N/c2cc(C)ccc2N)cc1`, 0.125 mM (≈ 28.2 µg/mL).
Still for that read-out and setting: in the case of `O=P(Oc1ccccc1)(Oc1ccccc1)N1CCOCC1` it was 7.2 mM (≈ 2300 µg/mL).
In turn, `C1CCC2NCCCC2C1` (stereo not given) returned a solubility of 82.6 mM (≈ 11500 µg/mL).
Same read-out and setting: in the case of `Cc1cc(Cl)c(O)c(Cl)c1` it was 38 mM (≈ 6730 µg/mL); in that of `CC(CC(C)C(=O)O)C(=O)O` (stereo not given), 350 mM (≈ 56000 µg/mL).
On the same count and under the same terms, in the case of `O=C(O)c1c(O)ccc2ccccc12` it was 0.744 mM (≈ 140 µg/mL); in that of `O=C(NC(=O)c1cccnc1)Nc1ccccc1`, 0.414 mM (≈ 100 µg/mL).
On the same count and under the same terms, in the case of `O=C(O)c1cc(N=Nc2ccccc2)ccc1O` it was 0.879 mM (≈ 213 µg/mL).
`O=[N+]([O-])c1ccc(O)c([N+](=O)[O-])c1-c1ccccc1`: the solubility was 0.192 mM (≈ 50 µg/mL).
The same measure, in the same setting: in the case of `CCCCOP(=O)(O)OCCCC` it was 81.8 mM (≈ 17200 µg/mL); in that of `COC(=O)OC(C)C(=O)OC` (stereo not given), 251 mM (≈ 40700 µg/mL); in that of `COc1ccc(C(=O)CCC(=O)O)cc1`, 86.5 mM (≈ 18000 µg/mL).
Same read-out and setting: as for `OCc1cccc(CO)c1`, the figure is 585 mM (≈ 80800 µg/mL).
On the same count and under the same terms, in the case of `CC(=O)Nc1ccc2c(c1)C(=O)OC2` it was 2.51 mM (≈ 480 µg/mL); in that of `Cn1c(=O)c2[nH]c(Cl)nc2n(C)c1=O`, 31.1 mM (≈ 6670 µg/mL); in that of `CCC1OC(=O)c2cc([N+](=O)[O-])ccc21` (stereo not given), 2.82 mM (≈ 584 µg/mL).
The molecule `CCCC(=O)NCCNC(=O)CCC` yielded a solubility of 239 mM (≈ 47800 µg/mL).
On the same count and under the same terms, as for `Oc1cnn(-c2ccccc2)c1`, the figure is 10.9 mM (≈ 1750 µg/mL).
Same read-out and setting: as for `NS(=O)(=O)c1ccc(S(N)(=O)=O)cc1`, the figure is 2.96 mM (≈ 700 µg/mL).
On the same count and under the same terms, in the case of `COS(=O)(=O)c1ccccc1` it was 18.1 mM (≈ 3120 µg/mL).
Turning to `Cc1ccc(S(=O)(=O)Oc2ccccc2C)cc1`, the solubility turned out to be 0.114 mM (≈ 30 µg/mL).
Same read-out and setting: in the case of `NC(=O)Nc1ccc(Br)cc1` it was 23.2 mM (≈ 5000 µg/mL).
On the same count and under the same terms, in the case of `CCCCN(C(N)=O)c1ccccc1` it was 50.5 mM (≈ 9700 µg/mL); in that of `Cn1cc([N+](=O)[O-])c(=O)[nH]c1=O`, 10.1 mM (≈ 1720 µg/mL); in that of `CCCCCCCCOCCO`, 7.5 mM (≈ 1310 µg/mL).
`CCCCCCCCCCCCCCNC(=O)C(C)O` (stereo not given) yielded a solubility of 0.105 mM (≈ 30 µg/mL). This solubility is about 71-fold lower than that of the molecule before.
On the same count and under the same terms, in the case of `c1cn[nH]c1` it was 285 mM (≈ 19400 µg/mL); in that of `CNC(CC(C)C)C(=O)O` (stereo in doubt), 306 mM (≈ 44400 µg/mL).

The data set is the same for the next values; noted with them: 26 °C.
For `CC(C=NO)=NO`, the solubility worked out at 451 mM (≈ 46000 µg/mL).
`N#CCCNC(Cc1ccccc1)C(=O)O` (racemic) returned a solubility of 32.1 mM (≈ 7000 µg/mL).

The same data set, now with this note: 28 °C.
Turning to `NC(=O)NCNC(N)=O`, the solubility is 223 mM (≈ 29400 µg/mL).

The data set is the same for the next values; noted with them: 30 °C.
Molecule `COC(=O)c1ccc(O)c(Br)c1` came in with a solubility of 0.684 mM (≈ 158 µg/mL).
Still for that read-out and setting: in the case of `CCOC(=O)CO[N+](=O)[O-]` it was 19.4 mM (≈ 2900 µg/mL).
As to `CN(C)C(=O)c1ccccc1C(=O)N(C)C`, the solubility is 3220 mM (≈ 710000 µg/mL).
Consider `CC(=O)c1cccs1`, for which the solubility was 111 mM (≈ 14000 µg/mL). This solubility is about 29-fold lower than that of the molecule before.
Same read-out and setting: as for `CCn1cnc2c1c(=O)n(C)c(=O)n2C`, the figure is 176 mM (≈ 36700 µg/mL).

For orientation: solubility means the dissolved amount per volume that the medium holds. A high value points to much dissolved substance.
